Experiments:
[1] = biological target: T1, NPR1 (Arabidopsis thaliana, UniProt P93002); test: classical non-equilibrium solid-phase [14C]SA binding; settings: radiolabeled SA, washes to remove unbound ligand
T1 construct: made in house; host or cells: E. coli
Description: To test whether NPR1 can bind SA directly, a classic method to assess Kd values was used, which involved coupling NPR1 to a solid phase and incubating it with radiolabeled SA, followed by washes to remove unbound ligand and counting the amount of ligand bound to NPR1.

[2] = biological target: T1, NPR1; assay type: binding; settings: equilibrium dialysis
Description: Given the dissociation reaction:
The data was analyzed by non-linear regression using GraphPad PRISM 4 and fitted to a one-site-binding rectangular hyperbola.

[3] = biological target: T2, NPR1-dependent oligomer on the PR-1 promoter (Arabidopsis thaliana, UniProt P93002); test: Cross-linked-chromatin chromatography (3C Method); assay type: in vivo; settings: wild-type plants, region −734 to −833
T2 construct: in wild-type plants (WT), such an oligomer forms on the PR-1 promoter; endogenous in cells; host or cells: wild-type Arabidopsis plants
T2 sequence (P93002 1-593): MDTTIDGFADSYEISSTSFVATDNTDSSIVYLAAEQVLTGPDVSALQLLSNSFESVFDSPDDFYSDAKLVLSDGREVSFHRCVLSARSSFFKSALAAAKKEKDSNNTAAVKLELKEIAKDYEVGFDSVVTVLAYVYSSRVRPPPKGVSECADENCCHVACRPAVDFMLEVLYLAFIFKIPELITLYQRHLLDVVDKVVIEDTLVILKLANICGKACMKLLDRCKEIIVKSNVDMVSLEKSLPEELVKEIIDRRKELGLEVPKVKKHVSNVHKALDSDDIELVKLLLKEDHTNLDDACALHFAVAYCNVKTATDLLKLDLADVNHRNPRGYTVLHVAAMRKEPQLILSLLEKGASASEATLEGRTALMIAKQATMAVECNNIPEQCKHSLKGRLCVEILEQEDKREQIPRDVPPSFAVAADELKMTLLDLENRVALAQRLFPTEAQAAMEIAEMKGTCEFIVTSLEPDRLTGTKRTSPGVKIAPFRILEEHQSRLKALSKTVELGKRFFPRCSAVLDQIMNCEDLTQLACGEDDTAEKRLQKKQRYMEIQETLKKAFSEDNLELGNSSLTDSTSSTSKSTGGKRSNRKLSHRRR
Description: Plant treatment, cross-linking, sonication, and cross-linking reversal were performed as for chromatin-immunoprecipitation (Rochon et al., 2006). Chromatography was as described under “Chromatography”. qPCR was performed with PR1 and Ubiquitin5 primers. PR-1 values were normalized against Ubiquitin5 (see Table 1 for primer sequence).
Although there are no decisive methods to test the stoichiometry of a protein in vivo, it was determined whether or not NPR1-dependent oligomers form on DNA in vivo by combining chromatin cross-linking, gel filtration, and qPCR (the 3C Method). The rationale was that, if an NPR1-dependent oligomer forms on the PR1 promoter in vivo, the presence of PR1 should be detectable by qPCR in the void fraction of an S300 after the chromatin had been cross-linked and sheared by sonication.

[4] = biological target: T3, Δ513 (Arabidopsis thaliana, UniProt P93002); test: Sephacryl S100 gel filtration of Strep-tagged Δ513; assay type: biochemical; settings: 1 mM SA
T3 construct: made in house; host or cells: E. coli
T3 sequence (P93002 513-593): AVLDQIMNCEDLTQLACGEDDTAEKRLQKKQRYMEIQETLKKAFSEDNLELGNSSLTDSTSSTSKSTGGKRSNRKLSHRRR
Description: Strep-tagged purified proteins in a final volume of 2 ml were subjected to gel filtration analysis on the Sephacryl S100 HR or Sephacryl S300 HR packed in 50 cm long HR 16 columns (GE Health) and equilibrated with S300 chromatography buffer (50 mM HEPES, pH 7.4, 250 mM NaCl. Elutions, in 0.5 ml fractions, were performed in the same buffer at a flow rate of 0.8 ml/min. Where indicated, proteins were incubated with 1 mM SA, 1 mM catechol, 1 mM 4-hydroxy benzoic acid, or 1 mM methyl-salicylate at room temperature for 30 min prior to chromatography as described above with the exception that the chromatography buffer was supplemented with 1 mM SA, 1 mM catechol, 1 mM 4-hydroxy benzoic acid, or 1 mM methyl-salicylate, respectively. In the case of the EDTA treatment, NPR1 was stripped of its metal by a 50 mM EDTA treatment of 30 min, followed by an incubation of 30 min with 1 mM SA prior to gel filtration. In this case, the chromatography buffer was supplemented with 1 mM SA.

[5] = biological target: T4, BTB/POZ-Δ513 interaction (Arabidopsis thaliana, UniProt P93002); test: in vivo plant two-hybrid assay; assay type: cell-based; set-up: expressed in transfected cells; host or cells: Arabidopsis thaliana (Columbia) leaves, biolistic bombardment; settings: 1 mM salicylic acid in medium, reporter mRNA
T4 sequence (P93002 513-593): T3 sequence (P93002 513-593)
Description: Arabidopsis thaliana (Columbia) leaves were harvested from four-week-old plants grown at 21° C. (day) and 18° C. (night) with a ten-hour photoperiod and transferred to Petri dishes containing MS salts and micronutrients supplemented with B5 vitamins, 1% sucrose and 0.8% agar at a pH of 5.8. […] Coating of the gold particles and general procedures and preparation of the biolistic experiments were as per the manufacturer's instructions (Bio-Rad). After bombardment, leaves were kept in the conditions described above for a period of 24 hours before assaying. Enzyme assays were performed using the Dual-Luciferase Reporter Assay® system (Promega) following the manufacturer's instructions. Luminescence was measured on a Berthold Lumat LB9507 Luminometer (Bad Wildbad, Germany) and the data obtained represented the value of the reporter gene divided by the value of the internal standard and expressed as Relative Luciferase Units. To increase signal-to-noise ratio in some experiments, qPCR was performed to measure the amount of Firefly and Renilla Luciferases mRNA. […]
Since BTB/POZ domains can be autoinhibitory, it was determined whether or not the NPR1 BTB/POZ can interact with the NPR1 transactivation domain. […] Here the reporter gene was monitored through its mRNA as opposed to its enzyme activity, which provided a greater signal-to-noise ratio (see Experimental Procedures). […]

`O=C(O)c1ccccc1O` [SA, Salicylic acid] was tested, and the “binding of SA to NPR1 coupled to a solid phase” value [1] was “not above that observed with a solid phase containing no protein”, the “amount of SA bound to NPR1 above a no-protein experiment” value [2] was ~4 orders of magnitude and the “maximum binding (Bmax)” value ([2]; saturation binding) was 0.96±0.01 mol SA per mol NPR1. The “NPR1-dependent oligomer on the PR-1 promoter (void fraction, qPCR)” value [3] was “not after a treatment with SA”, the “stoichiometry of Δ513 after SA treatment (S100)” value [4] was “consistent with that of a dimer” and the “BTB/POZ-Δ513 interaction in plant two-hybrid” value [5] was “disrupts the BTB/POZ-Δ513 association”.
